Values joined by “and” are separate entries in the source; they are usually repeats but may differ in a detail not shown here. Equal values may be shown once. “Also recorded” adds a separate entry of the source.
Target: T1, human MPO embedded in Matrigel (Homo sapiens, UniProt P05164)
T1 construct: purchased BioDesign, Inc
T1 sequence (P05164 49-745): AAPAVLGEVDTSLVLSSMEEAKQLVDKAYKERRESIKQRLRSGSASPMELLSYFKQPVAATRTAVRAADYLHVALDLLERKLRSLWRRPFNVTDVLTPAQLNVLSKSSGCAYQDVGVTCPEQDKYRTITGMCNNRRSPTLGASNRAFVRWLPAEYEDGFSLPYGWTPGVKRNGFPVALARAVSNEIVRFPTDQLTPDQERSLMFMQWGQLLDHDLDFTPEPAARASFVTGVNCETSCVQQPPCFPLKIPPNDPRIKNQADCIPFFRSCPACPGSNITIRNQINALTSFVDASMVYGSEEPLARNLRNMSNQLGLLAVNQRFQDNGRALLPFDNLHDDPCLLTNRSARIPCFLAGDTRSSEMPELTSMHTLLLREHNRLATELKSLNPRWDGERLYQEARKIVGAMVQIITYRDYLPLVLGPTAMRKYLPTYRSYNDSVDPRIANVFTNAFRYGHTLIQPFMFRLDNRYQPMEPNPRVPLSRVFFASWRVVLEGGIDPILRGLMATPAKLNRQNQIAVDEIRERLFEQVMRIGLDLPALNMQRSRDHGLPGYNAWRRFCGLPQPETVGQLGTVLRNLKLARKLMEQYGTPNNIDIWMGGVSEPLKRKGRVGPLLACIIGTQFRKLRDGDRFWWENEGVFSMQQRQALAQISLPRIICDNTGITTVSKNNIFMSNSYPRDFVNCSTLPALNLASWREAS
Experiment: MPO/Matrigel implant mouse model, T1-weighted MR imaging
Assay type: in vivo
Conditions: for enhancement of MPO implant compared with control implant: right MPO/Matrigel vs left control; for enhancement of MPO implant compared with control implant / relative CNR before wash-out/decrease of the control side: 1.5 T; for maximum relative CNR ratio (CNR(right)/CNR(left)): MPO/Matrigel right vs control left
Protocol: To evaluate the monomeric substrates in vivo, we devised a mouse model that harbored 400 μL of Matrigel basement membrane matrix gel mixed 1:1 by volume with a solution containing 15 U of human MPO and glucose oxidase (as a source of hydrogen peroxide) that was injected into the right flank of the mouse. The left flank was injected with the enzyme-free Matrigel mixture. We subsequently performed T1-weighted MR imaging after the intravenous injection of Gd-DTPA-diSer substrate at the dose of […].
The MR imaging experiments were performed on a 1.5 T GE Excite scanner and a 4.7 T Bruker Pharmascan scanner. For all MR imaging experiments, precontrast T2-(TR=2000, TE=100, ETL=8, NEX=4, fast spin echo sequence) and T1-weighted images (TR=500, TE=11, NEX=4, spin echo sequence) with fat saturation were initially performed to locate the gels or area of inflammation. The substrates (0.3 mmol/kg) were subsequently injected via the tail vein of the mouse. The mouse was immediately imaged after the injection of the contrast agent using multiple T1-weighted sequences with fat saturation for at least 3 hours.
Ten-week old C57BL6 male mice were obtained from Jackson Laboratories. A total of 22 mice were used for the study. • 1. MPO/Matrigel imaging experiments: Matrigel™ (Beckton-Dickinson), a […] basement membrane matrix gel was used to immobilize human MPO and glucose oxidase (to supply H2O2 required for detecting MPO oxidative activity, Calbiochem). This was chosen to reflect deposits of human MPO in inflamed tissue in a mouse model. 400 μL of a mixture of Matrigel™ and MEM (Cambrex) was injected slowly into the thighs of each mouse one hour prior to imaging. The right thigh mixture also contained 15 U of MPO and 4 U of glucose oxidase (Calbiochem), while the left thigh mixture contained no enzyme and thus serves as an internal control. A total of 15 mice were used (3 mice each for 5-HT-DOTA(Gd), bis-5-HT-DTPA(Gd), bis-5-HT-DTPA-^111In, bis-tyramide-DTPA(Gd), and DTPA(Gd)). • 2. LPS/Matrigel experiments (n=3): This model was developed to induce endogeneous mouse MPO secretion and activation. 200 μL total volume Matrigel containing 10% heparin was injected slowly into the thighs of the mice 4 days prior to imaging. The right-sided mixture also contained E. coli lipopolysaccharide (LPS) at 10 μg/mL. One mouse was sacrificed for immunohistochemistry. • 3. Myositis experiments (n=4): LPS at 100 μg/mL in PBS was injected into each mouse intramuscularly in the right flank to produce myositis. The mice are imaged 24 hours after injection.
For normalized signal intensity measured on T1-weighted images, mean±standard deviation (SD) values were calculated in regions of interest (ROI). Contrast-to-noise (CNR) ratios were computed for each ROI according to the formula

Row | maximum relative CNR ratio (CNR(right)/CNR(left)) (mouse, listed as serotonin-DOTA-Gd^3+ complex) | SMILES | enhancement of MPO implant compared with control implant (mice) | maximum relative CNR ratio (CNR(right)/CNR(left)) (mouse) | relative CNR increase before significant wash-out of the control side (mice, 4.7 T) | maximum relative CNR increase (mice, at 240 minutes (washout from control implant)) | maximum relative CNR increase (mice, in the first 143 minutes) | relative CNR before wash-out/decrease of the control side (mouse) | relative CNR before wash-out/decrease of the control side (mouse, listed as bis-5-HT-DTPA(Gd)) | relative CNR ratio (mouse, at 185 minutes) | increase in the contrast-to-noise ratio, right (MPO-containing) vs left (control) flank (mouse, i.v. 0.3 mM/Kg, over 3 hours post injection) | enhancement of MPO implant compared with control implant (mice, listed as bis-tyramide-DTPA(Gd))
1 | 1.72 | CC(C(=O)NCC(=O)NCCc1c[nH]c2ccc(O)cc12)N1CCN(CC(=O)[O-])CCN(CC(=O)[O-])CCN(CC(=O)[O-])CC1.[Gd+3] (stereo not shown) [5-HT-DOTA(Gd), Glycylmethyl DOTA(Gd) 5-Hydroxytryptamide] | significantly increased enhancement | 1.7 | – | – | – | – | – | – | – | –
2 | – | O=C([O-])CN(CCN(CC(=O)[O-])CC(=O)NCCc1c[nH]c2ccc(O)cc12)CCN(CC(=O)[O-])CC(=O)NCCc1c[nH]c2ccc(O)cc12.[Gd+3] [2Gd^3+] | significantly increased enhancement | 1.72 and 2.5 | 1.8 fold | 2.5 times | 1.9 times | 1.7-1.8 | 1.9 | 2.0 | 1.7-2.0 fold | –
3 | – | O=C([O-])CN(CCN(CC(=O)[O-])CC(=O)NCCc1ccc(O)cc1)CCN(CC(=O)[O-])CC(=O)NCCc1ccc(O)cc1.[Gd+3] [1Gd^3+] | – | – | – | – | – | – | – | – | – | did not result in significantly increased enhancement; also recorded: did not demonstrate significantly increased enhancement
